≈ marks a conversion by molar mass, not a printed value.
Experiments:
OVCAR-8 = assay: Cytotoxicity against human OVCAR8 cells assessed as cell growth inhibition after 48 hrs by SRB assay; assay type: functional, cell-based; conditions: OVCAR-8, 48 h
PC-3 [1] = assay: Cytotoxicity against human PC3 cells assessed as cell growth inhibition after 48 hrs by SRB assay; assay type: functional, cell-based; conditions: PC-3, 48 h
RXF 393 = assay: Cytotoxicity against human RXF393 cells assessed as cell growth inhibition after 48 hrs by SRB assay; assay type: functional, cell-based; conditions: RXF 393, 48 h
Liver = assay: Antioxidant activity in rat liver microsomal membranes assessed as inhibition of Fe(2+)/ascorbate-induced lipid peroxidation; assay type: functional, microsomes, microsome
HOP-62 = assay: Cytotoxicity against human HOP62 cells assessed as cell growth inhibition after 48 hrs by SRB assay; assay type: functional, cell-based; conditions: HOP-62, 48 h
HCT-116 [2] = assay: Cytotoxicity against human HCT116 cells assessed as cell growth inhibition after 48 hrs by SRB assay; assay type: functional, cell-based; conditions: HCT-116, 48 h
M14 = assay: Cytotoxicity against human M14 cells assessed as cell growth inhibition after 48 hrs by SRB assay; assay type: functional, cell-based; conditions: M14, 48 h
HL-60 = assay: Cytotoxicity against human HL60 cells assessed as cell growth inhibition after 48 hrs by SRB assay; assay type: functional, cell-based; conditions: HL-60, 48 h
PBMC = assay: Inhibition of anti-CD3 induced human PBMC proliferation at 1 ug/ml; assay type: functional
COLO 205 = assay: Cytotoxicity against human COLO205 cells assessed as cell growth inhibition after 48 hrs by SRB assay; assay type: functional, cell-based; conditions: COLO 205, 48 h
Hs-578T = assay: Cytotoxicity against human Hs578T cells assessed as cell growth inhibition after 48 hrs by SRB assay; assay type: functional, cell-based
HOP-92 = assay: Cytotoxicity against human HOP92 cells assessed as cell growth inhibition after 48 hrs by SRB assay; assay type: functional, cell-based; conditions: HOP-92, 48 h
SF-539 = assay: Cytotoxicity against human SF539 cells assessed as cell growth inhibition after 48 hrs by SRB assay; assay type: functional, cell-based; conditions: SF-539, 48 h
ACHN = assay: Cytotoxicity against human ACHN cells assessed as cell growth inhibition after 48 hrs by SRB assay; assay type: functional, cell-based
786-0 = assay: Cytotoxicity against human 786-O cells assessed as cell growth inhibition after 48 hrs by SRB assay; assay type: functional, cell-based; conditions: 786-0, 48 h
SNB-19 = assay: Cytotoxicity against human SNB19 cells assessed as cell growth inhibition after 48 hrs by SRB assay; assay type: functional, cell-based; conditions: SNB-19, 48 h
[3] = tested on: Mycobacterium tuberculosis; assay: Antitubercular activity against Mycobacterium tuberculosis; assay type: functional
UO-31 [4] = assay: Growth inhibition of human UO31 cells at 10 uM; assay type: functional; conditions: read-out: GI
SK-MEL-2 = assay: Growth inhibition of human SK-MEL-2 cells at 10 uM; assay type: functional; conditions: read-out: GI
T47D = assay: Growth inhibition of human T47D cells at 10 uM; assay type: functional; conditions: read-out: GI
MCF7 [5] = assay: Growth inhibition of human MCF7 cells at 10 uM; assay type: functional; conditions: read-out: GI
CCRF-CEM = assay: Cytotoxicity against human CCRF-CEM cells assessed as cell growth inhibition after 48 hrs by SRB assay; assay type: functional, cell-based
IGROV-1 = assay: Cytotoxicity against human IGROV1 cells assessed as cell growth inhibition after 48 hrs by SRB assay; assay type: functional, cell-based; conditions: IGROV-1, 48 h
NCI-H460 = assay: Cytotoxicity against human NCI-H460 cells assessed as cell growth inhibition after 48 hrs by SRB assay; assay type: functional, cell-based; conditions: NCI-H460, 48 h
SF-295 = assay: Cytotoxicity against human SF295 cells assessed as cell growth inhibition after 48 hrs by SRB assay; assay type: functional, cell-based; conditions: SF-295, 48 h
SNB-75 = assay: Cytotoxicity against human SNB75 cells assessed as cell growth inhibition after 48 hrs by SRB assay; assay type: functional, cell-based; conditions: SNB-75, 48 h
OVCAR-5 = assay: Cytotoxicity against human OVCAR5 cells assessed as cell growth inhibition after 48 hrs by SRB assay; assay type: functional, cell-based; conditions: OVCAR-5, 48 h
OVCAR-4 = assay: Cytotoxicity against human OVCAR4 cells assessed as cell growth inhibition after 48 hrs by SRB assay; assay type: functional, cell-based; conditions: OVCAR-4, 48 h
SK-MEL-5 = assay: Cytotoxicity against human SK-MEL-5 cells assessed as cell growth inhibition after 48 hrs by SRB assay; assay type: functional, cell-based; conditions: SK-MEL-5, 48 h
MOLT-4 = assay: Cytotoxicity against human MOLT4 cells assessed as cell growth inhibition after 48 hrs by SRB assay; assay type: functional, cell-based; conditions: MOLT-4, 48 h
EKVX = assay: Cytotoxicity against human EKVX cells assessed as cell growth inhibition at 2.1 ug/ml after 48 hrs by SRB assay; assay type: functional, cell-based
UO-31 [6] = assay: Cytotoxicity against human UO31 cells assessed as cell growth inhibition at 2.1 ug/ml after 48 hrs by SRB assay; assay type: functional; conditions: UO-31, 48 h, read-out: GI
UO-31 [7] = assay: Cytotoxicity against human UO31 cells assessed as cell growth inhibition at 3.2 ug/ml after 48 hrs by SRB assay; assay type: functional; conditions: UO-31, 48 h, read-out: GI
MCF7 [8] = assay: Cytotoxicity against human MCF7 cells assessed as cell growth inhibition after 48 hrs by SRB assay; assay type: functional, cell-based; conditions: MCF7, 48 h
SR = assay: Cytotoxicity against human SR cells assessed as cell growth inhibition after 48 hrs by SRB assay; assay type: functional, cell-based
OVCAR-3 = assay: Cytotoxicity against human OVCAR3 cells assessed as cell growth inhibition after 48 hrs by SRB assay; assay type: functional, cell-based; conditions: OVCAR-3, 48 h
Malme-3M = assay: Cytotoxicity against human MALME-3M cells assessed as cell growth inhibition after 48 hrs by SRB assay; assay type: functional, cell-based
SF-268 = assay: Cytotoxicity against human SF268 cells assessed as cell growth inhibition after 48 hrs by SRB assay; assay type: functional, cell-based; conditions: SF-268, 48 h
Aspergillus niger = assay: Antifungal activity against Aspergillus niger by CLSI protocol based method; assay type: functional
Escherichia coli = assay: Antibacterial activity against Escherichia coli by CLSI protocol based method; assay type: functional
[9] = tested on: Mycobacterium tuberculosis; assay: Antitubercular activity against Mycobacterium tuberculosis H37Rv; assay type: functional
[10] = tested on: Mycobacterium tuberculosis; assay: Antitubercular activity against Mycobacterium tuberculosis H37Rv assessed as inhibition of bacterial growth at 6.25 ug/ml; assay type: functional; conditions: read-out: GI
Trachea = assay: Inhibition of egg albumin antigen challenge-induced contraction response in methacholine-primed guinea pig trachea at 10 ug/ml; assay type: functional; conditions: Cavia porcellus
[11] = Inhibition of LTB4 formation in rat polymorphonuclear leukocytes preincubated for 2 mins followed by A-23187 addition after 4 mins; assay type: functional, cell-based
Rattus norvegicus = assay: Inhibition of PAF-induced hyperalgesia in Sprague-Dawley rat at 10 mg/kg, po dosed 30 mins prior to PAF challenge and measured 1 to 4 hours post PAF challenge; assay type: functional
HepG2 = assay: cells; conditions: Homo sapiens, HepG2, 72 h
Description: Cytotoxicity against human HepG2 cells assessed as inhibition of cell growth after 72 hrs by SRB assay

PC-3 [12] = assay: Cytotoxicity against human PC3 cells assessed as inhibition of cell growth after 72 hrs by SRB assay; assay type: functional, cell-based; conditions: PC-3, 72 h
HCT-116 [13] = assay: Cytotoxicity against human HCT116 cells assessed as inhibition of cell growth after 72 hrs by SRB assay; assay type: functional, cell-based; conditions: HCT-116, 72 h
MCF7 [14] = assay: Cytotoxicity against human MCF7 cells assessed as inhibition of cell growth after 72 hrs by SRB assay; assay type: functional, cell-based; conditions: MCF7, 72 h

## c1cc2c(cn1)Nc1ccncc1S2
OVCAR-8
  IC50: 7.1 µg/mL (≈ 35.3 µM)
PC-3 [1]
  IC50: 8.4 µg/mL
RXF 393
  IC50: 3.1 µg/mL (≈ 15.4 µM)
Liver
  IC50: 64000 nM
HOP-62
  IC50: 0.3 µg/mL (≈ 1.49 µM)
HCT-116 [2]
  IC50: 3.6 µg/mL
M14
  IC50: 6.5 µg/mL (≈ 32.3 µM)
HL-60
  IC50: 4.1 µg/mL (≈ 20.4 µM)
PBMC
  inhibition at 1 µg/mL: 72%
COLO 205
  IC50: 2.4 µg/mL (≈ 11.9 µM)
Hs-578T
  IC50: 5.9 µg/mL (≈ 29.3 µM)
HOP-92
  IC50: 1.7 µg/mL
SF-539
  IC50: 6.8 µg/mL (≈ 33.8 µM)
ACHN
  IC50: 5.4 µg/mL (≈ 26.8 µM)
786-0
  IC50: 3.9 µg/mL
SNB-19
  IC50: 6.8 µg/mL (≈ 33.8 µM)

## CCN(c1cnc2sc3c4c(=O)c5c(O)c(C)c6c(c5c-3nc2c1)C(=O)[C@@](C)(O/C=C/[C@H](OC)[C@@H](C)[C@@H](OC(C)=O)[C@H](C)[C@H](O)[C@H](C)[C@@H](O)[C@@H](C)/C=C/C=C(/C)C(=O)N4)O6)C(C)C
[3]
  MIC: 0.005 µg/mL (≈ 0.00564 µM)

## c1ccc(N2c3nc4ccccc4cc3Sc3cc4ccccc4nc32)nc1
UO-31 [4]
  inhibition of growth at 10 µM: 57 to 73%
SK-MEL-2
  inhibition of growth at 10 µM: 61%

## CCCCN1c2nc3ccccc3cc2Sc2cc3ccccc3nc21
T47D
  inhibition of growth at 10 µM: 86%
UO-31 [4]
  inhibition of growth at 10 µM: 78%
MCF7 [5]
  inhibition of growth at 10 µM: 93%

## O=C(NCCCl)NCCN1c2nc3ccccc3cc2Sc2cc3ccccc3nc21
CCRF-CEM
  IC50: 250 to 1000 nM
PC-3 [1]
  IC50: 250 to 1000 nM
IGROV-1
  IC50: 250 to 1000 nM
HCT-116 [2]
  IC50: 250 to 1000 nM
NCI-H460
  IC50: 250 to 1000 nM
SF-295
  IC50: 250 to 1000 nM
SNB-75
  IC50: 250 to 1000 nM
OVCAR-5
  IC50: 250 to 1000 nM
HOP-92
  IC50: 250 to 1000 nM
OVCAR-4
  IC50: 250 to 1000 nM
SK-MEL-5
  IC50: 87 nM
786-0
  IC50: 250 to 1000 nM
MOLT-4
  IC50: 250 to 1000 nM

## CN1c2ccncc2Sc2ccncc21
EKVX; read-out: GI
  inhibition of growth at 2.1 µg/mL: 51%
UO-31 [6]
  inhibition of growth at 2.1 µg/mL: 60%

## O=[N+]([O-])c1ccc(N2c3ccncc3Sc3ccncc32)cc1
UO-31 [7]
  inhibition of growth at 3.2 µg/mL: 44%

## [Cl-].c1ccc2nc3c(cc2c1)Sc1cc2ccccc2[n+]2c1N3CC2
MCF7 [8]
  IC50: 3.2 µg/mL
SR
  IC50: 4.9 µg/mL
PC-3 [1]
  IC50: 10 µg/mL
RXF 393
  IC50: 5 µg/mL
EKVX
  IC50: 7.6 µg/mL
NCI-H460
  IC50: 7.4 µg/mL
COLO 205
  IC50: 1.3 µg/mL
OVCAR-3
  IC50: 7.8 µg/mL
SK-MEL-5
  IC50: 1.5 µg/mL
Malme-3M
  IC50: 1.3 µg/mL
SF-268
  IC50: 8.5 µg/mL

## CCSc1ncc2c(n1)N=c1c(Cl)c3c(c(Cl)c1S2)=Nc1nc(SCC)nc(O)c1S3
Aspergillus niger
  MIC: 138 µg/mL (≈ 262 µM)
Escherichia coli
  MIC: 169 µg/mL (≈ 320 µM)

## O=c1[nH]c2c(Cl)ccc(Cl)c2c2c1Sc1cc(Cl)ccc1N2
[9]
  MIC: > 6.25 µg/mL
[10]
  inhibition of growth at 6.25 µg/mL: 67%

## c1ccc2c(c1)Nc1nccnc1S2
Trachea
  inhibition at 10 µg/mL: 85%
[11]
  IC50: 1 to 5 µg/mL (≈ 4.97 to 24.8 µM)
Rattus norvegicus
  inhibition in vivo at 10 mg/kg: 70%

## COc1ccc(-c2c3c(N)c4c(nc3nc3[nH]nc(-c5ccccc5)c23)Sc2ccccc2N4)cc1
HepG2
  IC50: 19100 nM
PC-3 [12]
  IC50: 34500 to 36500 nM
HCT-116 [13]
  IC50: 34500 to 36500 nM
MCF7 [14]
  IC50: 34500 to 36500 nM

Reference: ChEMBL document CHEMBL4138122, “Azaphenothiazines - promising phenothiazine derivatives. An insight into nomenclature, synthesis, structure elucidation and biological properties” (Eur J Med Chem, 2017)
